From patent US6599499B1, “Uses of diterpenoid triepoxides as an anti-proliferative agent” (priority 1999, dated 2003)

Tests used:
p53 wild-type (+/+) MEFs = test: Cell viability of p53+/+ mouse embryonic fibroblasts; type: cell-based
Source text: (§1) Cell culture and luciferase assay.
Functional p53 enhances triptolide-induced cell death.

HT1080 cells = test: Cell cycle analysis by propidium iodide/FACS, HT1080 cells; type: cell-based, human; settings: 16 h
Protocol: Cell Cycle Analysis. HT1080 cells ([…]) were treated with triptolide (20 ng/ml) and/or doxorubicin (100 nM) for 16 h. Cells were then harvested and washed with cold PBS. The cells were resuspended gently in 5 ml of 100% ethanol and fixed at 25° C. for 1 h. After washing with PBS, the cells were incubated with DNase-free RNase A (200 μg/ml) at 37 ° C. for 1 h and washed with PBS. Propidium iodide (10 μg/ml) was added, and the cells were incubated at 37° C. for 5 min. Cells were separated by sonicating at 20% output level for 15 s using a VirSonic 50 sonicator (Vitis Inc., NY). The samples were then sorted by FACS, and cell cycle analysis was done with FlowJo (version 3.0.3) (Tree Start, Inc, San Carlos, Calif.).

[1] = tested on: HT-1080 (fibrosarcoma) cells; test: Cell viability by MTT assay, HT-1080 cells; settings: for Percent survival: MTT after 48 h
Protocol: (§2) Cell culture and luciferase assay. A549 (non-small cell lung cancer), HT-1080 (fibrosarcoma), and MCF-7 (breast cancer) cells were cultured in the appropriate media with 10% FCS supplemented with L-glutamine, penicillin, and streptomycin. p53 wild-type (+/+) and null (−/−) Mouse Embryonic Fibroblasts (MEFs) transfected with the E1A/Ras were grown in DMEM containing 15% FCS supplemented with L-glutamine, penicillin, and streptomycin. Transfections were done on MCF-7 cells using the lipofectamine Plus reagent. At 24 hours after transfection, MCF-7 cells were left untreated or treated with triptolide (20 ng/ml) or doxorubicin (100 nM) for 4, 8, and 16 hours and cells were collected for luciferase assay. Luciferase activity was measured in samples with equal protein concentration with a Luminometer (Analytical Luminescence Laboratory, San Diego, Calif.).
(§3) Cell viability assay. Cell viability was measured by an 3-(4,5-dimethylthiazol-2-yl)-2,5-diphenyltetrazolium bromide (MTT) assay as described above. Untreated or cells treated with triptolide and/or doxorubicin were harvested at the indicated times followed by the addition of MTT to the cells in a 96-well plate. Cells were solubilized with […] acidified with 0.1N HCl. The 96-plate was read at a wavelength of 590 nm on an iEMS Labsystems plate reader.

p53 = p53 protein level by immunoblotting (Example 5); type: cell-based, human
Protocol: (§4) Immunoblotting. Cells were harvested at the conditions and times indicated and lysed using HNET buffer (50 mM HEPES, pH 7.5, 100 mM NaCl, 1 mM EGTA, and 1% Triton X-100) supplemented with 1 mM dithiothreitol, 1 mM phenylmethylsulfonyl fluoride, and protease inhibitors mixture (Roche Molecular Biochemicals). 100 μg of protein was loaded on 10% SDS-PAGE followed by transferring to polyvinylidene difluoride membrane. Immunoblotting was performed as described previously using a p53 mouse monoclonal antibody from Oncogene Research Products. […] Immunoblot analysis using other antibodies was performed as described above. The band intensity was measured by NIH Image 1.62.

p21 = p21 protein level by immunoblotting (Example 5); type: cell-based, human; settings: for effect on p21 expression: p53 mutant HT29 colon cancer cell line
Protocol: as §4

[2] = tested on: p53-binding site in the mdm2 promoter; test: mdm2 promoter-luciferase reporter (pBP100-GL2) in MCF-7 cells; type: cell-based, human
Source text: Reagents. PG490 (triptolide, MW 360) was obtained from Pharmagenesis (Palo Alto, Calif.). A549 (non-small cell lung cancer) and HT1080 (fibrosarcoma) cell lines were from ATCC. MCF-7 (breast cancer) cell line was obtained from Dr. Ron Weigel (Stanford University). Mouse embryonic fibroblasts (p53+/+ and p53−/−) cell lines were provided by Dr. Amato J. Giaccia (Stanford University). […] The mdm2 promoter-luciferase construct pBP100-GL2 was provided by Dr.
Louis Noumovski (Stanford University) and was made by cloning the Bgl II-Hind III fragment from the pBP100CAT vector into the pGL2-Basic Vector (Promega, Madison, Wis.). MCF-7 cells were transfected using lipofectamine Plus reagent from the Life Technologies, Inc. Cells were collected and lysates were prepared according to the manufacturer's protocol for luciferase assay (Promega Corp., Madison, Wis.). Antibodies for p53, p21^WAF1/CIP1, Mdm2, Protein phosphatase-1 (PP-1), and Erk-2 were from Calbiochem, Inc (La Jolla, Calif.) and the rabbit polyclonal Bax antibody was from Upstate Biotechnology (Lake Placid, N.Y.).
as §1
In the experiments shown in FIG. 5, RT-PCR was performed using 2 μg of total RNAs extracted from MCF-7 cells. […] GADPH was used as a loading control. […]

[3] = tested on: A549 (non-small cell lung cancer) cells; test: Cell viability by MTT assay, A549 cells; settings: for Percent survival: MTT after 48 h
Protocol: as §2, §3

[4] = tested on: Dx5 MDR human tumor cells; test: Nude mouse xenograft, established Dx5 MDR tumors; type: in vivo, nude mice
Protocol: Nude mouse xenograft model. Female NCr nude mice were purchased from Taconic, Germantown, N.Y., and were generally 20-24 grams when used. Mice were kept in autoclaved filter-top microisolator cages with autoclaved water and sterile food ad lib. The cages were maintained in an isolator unit providing filtered air (Lab Products, Inc., Maywood, N.J.). Tumor cells were grown and harvested as described above. NCr nude mice were injected intradermally with 5×10^6 tumor cells. In some experiments, treatment was initiated on the day of tumor cell implantation. […] Mice were treated IP daily for 5 days per week.
MDR is a factor in failing to achieve durable chemotherapeutic efficacy in the clinical setting. Using an MDR tumor cell line Dx5 the efficacy of PG490-88 was tested. Nude mice were implanted intradermally with Dx5 tumor cells, and treatment was initiated when the tumors reached approximately 100 mm^3.
The data in FIG. 4 represents the measurement of Dx5 tumor volume on day 14 after the initiation of treatment. Nude mice bearing xenografts of Dx5 MDR human tumor cells were treated daily as shown. The data represent the means and the standard errors of the means of the tumor volumes as percent of the day 0 tumor volumes for each animal measured day 3, 7, 10 and 14 days after the initiation of treatment. There were 5 mice in the groups receiving saline or PG490-88 plus doxorubicin, and 4 mice in the groups receiving PG490-88 or doxorubicin alone.

[5] = Mus musculus, Fibroblast, read-out: reduction of cell viability
[6] = HT-1080, Triptolide 5 ng/ml, Doxorubicin 100 nM, alone or combined
[7] = A549, Triptolide 5 ng/ml, Doxorubicin 100 nM, alone or combined

CC(C)[C@]12O[C@H]1[C@@H]1O[C@]13[C@]1(O[C@H]1C[C@H]1C4=C(CC[C@@]13C)C(=O)OC4)[C@@H]2O [PG490, triptolide]
cytotoxicity at 0.005 µg/mL (p53 wild-type (+/+) MEFs; [5]): 48% | cytotoxicity at 0.01 µg/mL (p53 wild-type (+/+) MEFs; [5]): 73% | cells in S phase (HT1080 cells; HT1080, triptolide 20 ng/ml, 23.7% in unstimulated cells): 46% | Percent survival [1, 6]: 90.4 ± 6.2% | Percent survival ([1]; HT-1080, Triptolide 20 ng/ml alone or with Doxorubicin 100 nM): 26.0 ± 5.2% | cytotoxicity at 0.02 µg/mL ([1]; Homo sapiens, HT-1080, read-out: decrease in cell viability): 74% | increase in p53 (p53; HT1080, triptolide 5 ng/ml): 2.4 fold | increase in p53 steady-state protein levels (p53; HT1080, triptolide 20 ng/ml, 9 h): 4 fold | reduction of basal p21 levels (p21; HT1080, triptolide 20 ng/ml): 50% | effect on CPT-11-mediated induction of p21 (p21; HT1080 and A549 cells): inhibits | effect on p21 expression (p21): did not affect | reduction of doxorubicin-mediated induction of p53 (p21; triptolide 5 ng/ml): 58% | effect on doxorubicin-induced increase in p21 (p21; triptolide 20 ng/ml): completely blocked | decrease of transactivation of the reporter construct ([2]; MCF-7, triptolide 20 ng/ml): approximately 30% | Percent survival [3, 7]: 91.1 ± 3.8% | Percent survival ([3]; A549, Triptolide 20 ng/ml alone or with Doxorubicin 100 nM): 64.0 ± 8.2% | effect on cell death induced by carboplatinum ([3]; A549 cells): enhances cell death

CC(C)[C@]12O[C@H]1[C@@H]1O[C@]13[C@]1(O[C@H]1C[C@H]1C4=C(CC[C@@]13C)C(=O)OC4)[C@@H]2OC(=O)CCC(=O)[O-].[Na+] [PG490-88, 14-succinyl triptolide sodium salt]
growth of one tumor compared with its day 0 value ([4]; PG490-88 0.75 mg/kg/day, one of four mice): 2.8 fold | reduction of mean tumor size compared to day 0 values ([4]; PG490-88 0.75 mg/kg/day, three of the four mice): 28%

COc1cccc2c1C(=O)c1c(O)c3c(c(O)c1C2=O)C[C@@](O)(C(=O)CO)C[C@@H]3O[C@H]1C[C@H](N)[C@H](O)[C@H](C)O1 [doxorubicin, reference compound]
more cell death in MEF cells with wild-type p53 than in those without functional p53 (p53 wild-type (+/+) MEFs): 35% | cells in G2/M (HT1080 cells; HT1080, doxorubicin 100 nM alone or with triptolide 20 ng/ml, 11% without treatment): 49.8% | Percent survival [1, 6]: 93.6 ± 4.3% | cytotoxicity at 0.1 µM ([1]; Homo sapiens, HT-1080, 48 h, read-out: decrease in cell viability, HT-1080, triptolide 5 ng/ml (13.5 nM), doxorubicin 100 nM, alone or combined, 48 hours): 6.4% | increase in p53 protein (p53; HT1080, doxorubicin alone or plus triptolide): 4.9 fold | increase of mean tumor volume over 14 days ([4]; doxorubicin alone 2 mg/kg/day): more than 10 fold | increase in p21 (p21; HT1080, doxorubicin): 14.5 fold | effect on p21 expression (p21): did not affect | increase of transactivation of the Mdm2 reporter ([2]; MCF-7, doxorubicin 100 nM, by 16 h): 15% | Percent survival [3, 7]: 85.7 ± 9.6% | cytotoxicity at 0.1 µM ([3]; Homo sapiens, A549, 48 h, read-out: decrease in cell viability, A549, triptolide 20 ng/ml, doxorubicin 100 nM, alone or combined, 48 hours): 14.3%
